From article PMC6850446, “In vivo inactivation of glycosidases by conduritol B epoxide and cyclophellitol as revealed by activity‐based protein profiling” (The Febs Journal, 2019)
Read-outs that look alike come from different tables or passages of the source.

Assays:
GBA3 = molecular target: T1, GBA3 (Homo sapiens, UniProt Q9H227); test: intact cells treated, residual activity in lysate supernatant with 4MU-glucoside; format: cell-based
T1 construct: human GBA3 overexpressed in HEK293T; expected 45-53 kDa
T1 sequence (Q9H227 1-469): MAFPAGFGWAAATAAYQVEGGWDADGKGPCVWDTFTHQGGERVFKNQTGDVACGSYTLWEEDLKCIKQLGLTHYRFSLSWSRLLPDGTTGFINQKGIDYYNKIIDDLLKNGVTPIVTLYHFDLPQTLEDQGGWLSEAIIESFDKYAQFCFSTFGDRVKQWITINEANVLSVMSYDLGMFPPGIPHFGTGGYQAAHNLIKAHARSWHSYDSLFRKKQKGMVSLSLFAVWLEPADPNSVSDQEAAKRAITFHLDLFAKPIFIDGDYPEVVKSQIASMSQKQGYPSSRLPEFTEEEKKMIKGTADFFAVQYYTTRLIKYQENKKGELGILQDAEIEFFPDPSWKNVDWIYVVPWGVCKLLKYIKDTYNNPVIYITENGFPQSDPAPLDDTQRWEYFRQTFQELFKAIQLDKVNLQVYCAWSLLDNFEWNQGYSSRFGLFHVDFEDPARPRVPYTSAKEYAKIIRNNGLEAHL
Description: intact cells treated, residual activity in lysate supernatant with 4MU-glucoside on GBA3

GAA (zebrafish larvae) = molecular target: T2, GAA (zebrafish larvae) (Danio rerio, UniProt A0A8M1QKP5); test: live larvae exposed, residual activity in lysate with 4MU-alpha-D-glucopyranoside; settings: in vivo: concentration in egg water, 5 days at 28.5 °C, assay pH 4.0
T2 construct: endogenous enzyme in larvae, measured in larval lysate; paralogues not distinguished
T2 sequence (A0A8M1QKP5 31-918): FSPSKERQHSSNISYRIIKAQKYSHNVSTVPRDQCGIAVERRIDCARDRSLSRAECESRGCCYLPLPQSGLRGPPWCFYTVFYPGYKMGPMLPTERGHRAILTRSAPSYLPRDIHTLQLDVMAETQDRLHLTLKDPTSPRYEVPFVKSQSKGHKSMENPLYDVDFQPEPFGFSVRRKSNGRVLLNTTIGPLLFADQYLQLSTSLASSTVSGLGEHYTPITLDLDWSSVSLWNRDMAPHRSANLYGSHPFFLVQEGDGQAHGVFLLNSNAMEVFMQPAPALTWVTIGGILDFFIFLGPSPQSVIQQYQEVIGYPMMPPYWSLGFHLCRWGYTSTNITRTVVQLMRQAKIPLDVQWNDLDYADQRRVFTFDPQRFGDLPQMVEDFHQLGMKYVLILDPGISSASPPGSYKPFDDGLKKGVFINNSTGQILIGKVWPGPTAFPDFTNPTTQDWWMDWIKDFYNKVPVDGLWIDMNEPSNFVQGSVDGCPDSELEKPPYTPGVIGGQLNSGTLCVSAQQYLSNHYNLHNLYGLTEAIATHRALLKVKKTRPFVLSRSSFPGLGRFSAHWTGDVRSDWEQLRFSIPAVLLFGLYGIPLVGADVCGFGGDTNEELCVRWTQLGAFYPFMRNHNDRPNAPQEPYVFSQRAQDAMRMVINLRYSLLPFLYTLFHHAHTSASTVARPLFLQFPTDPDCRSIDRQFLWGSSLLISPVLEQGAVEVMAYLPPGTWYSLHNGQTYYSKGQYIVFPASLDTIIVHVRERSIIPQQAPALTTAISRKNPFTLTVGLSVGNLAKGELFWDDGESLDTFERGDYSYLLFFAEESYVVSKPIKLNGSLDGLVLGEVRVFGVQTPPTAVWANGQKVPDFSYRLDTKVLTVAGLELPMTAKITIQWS
Description: live larvae exposed, residual activity in lysate with 4MU-alpha-D-glucopyranoside on GAA (zebrafish larvae)

[1] = molecular target: T3, recombinant human GBA (rGBA, imiglucerase) (Homo sapiens, UniProt P04062, R534H); test: residual activity, fluorogenic 4MU-glucoside assay; format: biochemical; settings: covalent, irreversible, 180 min preincubation, pH 5.2, 37 °C, 0.2% taurocholate, 0.1% Triton X-100, 3.75 mM 4MU-beta-D-glucopyranoside
T3 construct: gene GBA1; imiglucerase (Sanofi Genzyme), mature secreted enzyme
T3 sequence (P04062 40-536 R534H): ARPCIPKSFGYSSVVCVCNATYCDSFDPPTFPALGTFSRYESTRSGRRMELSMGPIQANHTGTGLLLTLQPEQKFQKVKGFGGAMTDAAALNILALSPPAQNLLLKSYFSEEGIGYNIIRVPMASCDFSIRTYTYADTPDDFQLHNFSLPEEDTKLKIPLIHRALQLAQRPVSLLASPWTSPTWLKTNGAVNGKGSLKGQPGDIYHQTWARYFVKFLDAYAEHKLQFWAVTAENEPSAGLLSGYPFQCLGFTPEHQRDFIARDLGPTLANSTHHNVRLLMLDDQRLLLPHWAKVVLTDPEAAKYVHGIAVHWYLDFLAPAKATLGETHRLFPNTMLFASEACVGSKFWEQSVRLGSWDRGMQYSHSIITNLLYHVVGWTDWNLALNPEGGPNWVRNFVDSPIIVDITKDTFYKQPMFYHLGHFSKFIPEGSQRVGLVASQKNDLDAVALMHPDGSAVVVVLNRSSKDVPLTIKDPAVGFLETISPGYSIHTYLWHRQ
Description: residual activity, fluorogenic 4MU-glucoside assay on recombinant human GBA (rGBA, imiglucerase)

[2] = molecular target: T4, GUSB (lysosomal beta-glucuronidase) (Homo sapiens, UniProt P08236); test: intact cells treated, residual activity in lysate with 4MU-beta-D-glucuronide; format: cell-based; settings: 24 h treatment of intact HEK293T cells, assay pH 5.0
T4 construct: endogenous enzyme in HEK293T cells (GBA2-expressing line)
T4 sequence (P08236 23-651): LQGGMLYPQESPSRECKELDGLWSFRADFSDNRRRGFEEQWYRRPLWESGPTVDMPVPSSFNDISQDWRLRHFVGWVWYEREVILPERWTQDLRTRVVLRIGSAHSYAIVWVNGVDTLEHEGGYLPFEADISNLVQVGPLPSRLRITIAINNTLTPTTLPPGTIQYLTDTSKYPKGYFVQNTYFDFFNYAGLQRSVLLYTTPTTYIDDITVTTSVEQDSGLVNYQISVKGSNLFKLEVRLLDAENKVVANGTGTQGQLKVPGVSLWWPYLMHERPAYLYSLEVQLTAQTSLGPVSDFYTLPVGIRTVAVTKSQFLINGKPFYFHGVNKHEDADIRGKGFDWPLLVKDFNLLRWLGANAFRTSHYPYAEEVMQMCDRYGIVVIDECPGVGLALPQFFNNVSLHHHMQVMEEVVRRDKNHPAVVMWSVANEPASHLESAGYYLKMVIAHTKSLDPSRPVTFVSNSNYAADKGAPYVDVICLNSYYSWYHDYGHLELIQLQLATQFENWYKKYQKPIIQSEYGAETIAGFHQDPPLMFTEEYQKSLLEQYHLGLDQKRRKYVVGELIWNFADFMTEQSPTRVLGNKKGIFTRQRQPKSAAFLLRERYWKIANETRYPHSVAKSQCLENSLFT

[3] = covalent, read-out: CBE / Enz. assay

IC50 (GBA3; read-out: CBE / Enz. assay)	IC50 (GAA (zebrafish larvae); [3])	IC50 ([1]; read-out: CBE / Enz. assay)	IC50 [2, 3]	SMILES	IC50 (GBA3; read-out: CP / Enz. assay)	IC50 (GAA (zebrafish larvae); read-out: CP / Enz. assay)	IC50 ([1]; read-out: CP / Enz. assay)	IC50 ([2]; read-out: apparent IC50)
474 µM	5010 µM	4.28 µM	607 µM	OC1C(O)C(O)C2OC2C1O (centres unmarked) [compound 1, conduritol B epoxide]	–	–	–	–
–	–	–	–	OC[C@@H]1[C@@H](O)[C@H](O)[C@@H](O)[C@@H]2O[C@H]12 [compound 2, cyclophellitol]	> 10 µM	> 100 µM	0.03 µM	> 10 µM
